Patent US5795907A, “Gastin and CCK receptor ligands” (James Black Foundation Limited, priority 1994, dated 1998)

Legend:
gastrin = biological target: T1, gastrin (Rattus norvegicus, UniProt P30553); assay: gastrin antagonist activity in an immature rat stomach assay (pentagastrin-stimulated acid secretion); conditions: cumulative pentagastrin dose-response curves after 60 min with drug; for Kb: read-out: Gastrin pKB (converted)
T1 construct: The stomach was lowered into a jacketed organ bath containing 40 ml of buffered solution; from tissue; host or cells: isolated perfused whole stomach of immature rats (ca. 21 days old)
T1 sequence (P30553 1-452): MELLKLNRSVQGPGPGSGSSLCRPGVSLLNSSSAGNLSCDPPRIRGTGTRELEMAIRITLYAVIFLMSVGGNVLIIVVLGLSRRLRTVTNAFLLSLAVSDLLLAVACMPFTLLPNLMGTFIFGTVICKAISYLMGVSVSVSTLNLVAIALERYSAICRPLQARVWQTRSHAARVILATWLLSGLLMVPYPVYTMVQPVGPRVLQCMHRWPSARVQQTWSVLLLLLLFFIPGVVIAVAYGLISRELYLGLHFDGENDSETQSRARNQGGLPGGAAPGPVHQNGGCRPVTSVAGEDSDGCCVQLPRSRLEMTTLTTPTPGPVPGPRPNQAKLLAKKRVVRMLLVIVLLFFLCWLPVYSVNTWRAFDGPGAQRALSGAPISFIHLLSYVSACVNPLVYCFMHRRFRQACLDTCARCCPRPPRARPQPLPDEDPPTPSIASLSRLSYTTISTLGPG
Procedure, shortened: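 Isolated lumen-perfused immature rat stomach (33-50 g, ca. 21 days) in 37° organ bath with 3×10^-8 M 5-methylfurmethide; acid secretion read by pH electrode in perfusate. Compound added to serosal bath after 120 min stabilisation; cumulative pentagastrin dose-response curves begun 60 min later and analysed by the Black et al. method.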

CCKB receptor = biological target: T2, CCKB receptor (Mus musculus, UniProt P56481); assay: CCKB receptor radioligand binding assay in mouse cortical membranes ([125I]-CCK8S); conditions: [125I]-CCK8S 200 pM, 150 min at 21±3°; for Ki: read-out: CCKB pKi (converted)
T2 construct: The cortex was dissected, weighed and homogenised in 40ml ice-cold buffer; tissue Charles River (supplier of the CD1 mice); host or cells: cerebral cortex membranes of male CD1 mice
T2 sequence (P56481 1-453): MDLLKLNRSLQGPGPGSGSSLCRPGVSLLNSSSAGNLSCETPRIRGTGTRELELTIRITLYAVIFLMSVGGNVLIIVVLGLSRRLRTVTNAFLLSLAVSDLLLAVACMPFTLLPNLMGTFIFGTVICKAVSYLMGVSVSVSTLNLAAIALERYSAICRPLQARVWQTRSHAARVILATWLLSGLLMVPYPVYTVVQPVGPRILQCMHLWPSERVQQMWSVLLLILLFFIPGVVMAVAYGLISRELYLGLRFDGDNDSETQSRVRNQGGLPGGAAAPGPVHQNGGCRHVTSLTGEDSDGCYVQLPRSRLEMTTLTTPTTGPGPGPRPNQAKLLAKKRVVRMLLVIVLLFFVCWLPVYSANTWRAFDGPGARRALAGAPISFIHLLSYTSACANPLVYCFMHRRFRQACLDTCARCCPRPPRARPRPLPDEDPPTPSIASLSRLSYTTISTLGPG
Procedure, shortened: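 Cortical membranes from male CD1 mice in HEPES buffer (pH 7.2; NaCl, KCl, MgCl2, EDTA, bacitracin) were incubated with competing compound and [125I]-CCK8S (added as a 200 pM solution) for 150 min at 21±3°. Non-specific binding was defined with L-365,260. Bound tracer was separated by GF/B filtration and counted by gamma counting.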

CCKA = biological target: T3, CCKA (Cavia porcellus, UniProt Q63931); assay: CCKA radioligand binding assay in guinea-pig pancreas membranes ([125I]-CCK8(S)); conditions: PD134,308 present, 150 minutes at 21±3°; for Ki: read-out: CCKA pKi (converted)
T3 construct: The pancreatata were homogenised in 40 ml ice-cold HEPES buffer using a polytron; from tissue; host or cells: pancreas membranes of male Dunkin Hartley guinea-pigs
T3 sequence (Q63931 1-430): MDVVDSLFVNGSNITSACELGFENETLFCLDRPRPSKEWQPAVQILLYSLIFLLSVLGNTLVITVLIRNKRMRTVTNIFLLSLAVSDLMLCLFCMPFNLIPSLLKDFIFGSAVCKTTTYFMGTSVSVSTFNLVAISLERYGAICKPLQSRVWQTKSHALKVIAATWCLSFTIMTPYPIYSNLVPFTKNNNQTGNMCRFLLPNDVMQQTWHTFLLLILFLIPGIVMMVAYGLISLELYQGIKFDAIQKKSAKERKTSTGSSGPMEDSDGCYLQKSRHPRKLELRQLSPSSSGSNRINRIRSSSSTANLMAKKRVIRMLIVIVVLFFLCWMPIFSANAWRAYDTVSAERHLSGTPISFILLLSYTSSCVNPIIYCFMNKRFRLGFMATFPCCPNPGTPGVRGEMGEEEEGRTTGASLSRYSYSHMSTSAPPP
Procedure, shortened: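 Male guinea-pig pancreas membranes (1 mg/ml wet tissue in HEPES pH 7.2, suspension containing 0.375 μM PD134,308) were incubated 150 min at 21±3° with [125I]-CCK8(S) ([…] added solution) and competitor. Non-specific binding used 100 nM L-364,718 (added solution). Bound radioligand was measured by GF/B filtration and gamma counting.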

Gastrin pKB (gastrin)	CCKB pKi (CCKB receptor)	CCKA pKi (CCKA)	Kb (gastrin) [µM]	Ki (CCKB receptor) [µM]	Ki (CCKA) [µM]	Compound
7.8	7.8	5.7				5-(1S-(3,5-dicarboxyphenylaminocarbonyl)-2-phenylethylaminocarbonyl)-6-(1-adamantanemethyl-N-methylaminocarbonyl)-indole and regioisomer with substituents at positions 5 and 6 reversed [Example 41]
8.2	8.1	< 5.0				O=C(O)c1cc(NC(=O)[C@H](Cc2ccccc2)NC(=O)c2ccc3[nH]cnc3c2C(=O)NCC23CC4CC(CC(C4)C2)C3)cc(C(=O)O)c1 [Example 112, 5-(1S-(3,5-dicarboxyphenylaminocarbonyl)-2-phenylethylaminocarbonyl)-4-(1-adamantanemethylaminocarbonyl)-benzimidazole]
8.9	7.9	5.5				5-(1S-(3,5-dicarboxyphenylaminocarbonyl)-2-(4-aminophenyl)ethylaminocarbonyl)-6-(1-adamantanemethylaminocarbonyl)-indole and regioisomer with substituents at positions 5 and 6 reversed [Example 31]
9.3	7.8	5.5				5-(1S-(3,5-dicarboxyphenylaminocarbonyl)-2-phenylethylaminocarbonyl)-6-(cycloheptanemethylaminocarbonyl)-indole and regioisomer with substituents at positions 5 and 6 reversed [Example 42]
			0.00251	0.00631	2	O=C(NCC12CC3CC(CC(C3)C1)C2)c1cc2nc[nH]c2cc1C(=O)N[C@@H](Cc1ccccc1)C(=O)Nc1cccc(S(=O)(=O)NC(=O)C(F)(F)F)c1 [Example 128, 5-(1S-(3-trifluoroacetylaminosulphonylphenylaminocarbonyl)-2-phenylethylaminocarbonyl)-6-(1-adamantanemethylaminocarbonyl)-benzimidazole]
			0.000316	0.00126	2	O=C(O)c1cc(NC(=O)[C@H](Cc2ccccc2)NC(=O)c2cc3cc[nH]c3cc2C(=O)NCC23CC4CC(CC(C4)C2)C3)cc(C(=O)O)c1 [Example 24, 5-(1S-(3,5-dicarboxyphenylaminocarbonyl)-2-phenylethylaminocarbonyl)-6-(1-adamantanemethylaminocarbonyl)-indole]
			0.00126	0.00501	3.16	O=C(O)c1cc(NC(=O)C(Cc2ccc(F)cc2F)NC(=O)c2cc3[nH]cnc3cc2C(=O)NCC23CC4CC(CC(C4)C2)C3)cc(C(=O)O)c1 (racemic) [Example 85, (±)-5-(1-(3,5-dicarboxyphenylaminocarbonyl)-2-(2,4-difluorophenyl)ethylaminocarbonyl)-6-(1-adamantanemethylaminocarbonyl)-benzimidazole]

Continued, compound first:

Compound	Gastrin pKB (gastrin)	CCKB pKi (CCKB receptor)	CCKA pKi (CCKA)	Kb (gastrin) [µM]	Ki (CCKB receptor) [µM]	Ki (CCKA) [µM]
5-(1S-(3-methoxycarbonyl-5-pivaloyloxymethyloxycarbonyl-phenylaminocarbonyl)-2-phenylethylaminocarbonyl)-6-(1-adamantanemethylaminocarbonyl)-indole and regioisomer with substituents at positions 5 and 6 reversed [Example 39]	6.8	6.4	4.9			
O=C(NCC12CC3CC(CC(C3)C1)C2)c1cc2[nH]ccc2cc1C(=O)N[C@@H](Cc1ccccc1)C(=O)Nc1cc(NS(=O)(=O)C(F)(F)F)cc(NS(=O)(=O)C(F)(F)F)c1 [Example 93, 5-(1S-(3,5-di-trifluoromethylsulphonylaminophenylaminocarbonyl)-2-phenylethylaminocarbonyl)-6-(1-adamantanemethylaminocarbonyl)-indole]	7.7	8.1	5.6			
O=C(O)CNC(=O)[C@H]1CCCN1C(=O)c1cc2[nH]cnc2cc1C(=O)NCC12CC3CC(CC(C3)C1)C2 [Example 76, 5-(2R-carboxymethylaminocarbonylpyrrolidino-carbonyl)-6-(1-adamantanemethylaminocarbonyl)-benzimidazole]				0.126	0.631	> 10
O=C(O)c1cc(NC(=O)[C@H](Cc2ccccc2)NC(=O)c2cc3[nH]ccc3cc2C(=O)NCC23CC4CC(CC(C4)C2)C3)cc(C(=O)O)c1 [Example 26, 6-(1S-(3,5-dicarboxyphenylaminocarbonyl)-2-phenylethylaminocarbonyl)-5-(1-adamantanemethylaminocarbonyl)-indole]				0.000501	0.0126	3.16
5-(1S-(3,5-dicarboxyphenylaminocarbonyl)-2-(2-fluorophenyl)ethylaminocarbonyl)-6-(1-adamantanemethylaminocarbonyl)-indole and regioisomer with substituents at positions 5 and 6 reversed [Example 27]	9.2	8.5	5.6			
O=C(O)c1cc(NC(=O)[C@H](Cc2ccccc2)NC(=O)C2Cc3[nH]cnc3CN2C(=O)NCC23CC4CC(CC(C4)C2)C3)cc(C(=O)O)c1 (mixture of isomers) [Example 126, (±)-6-(1S-(3,5-dicarboxyphenylaminocarbonyl)-2-phenylethylaminocarbonyl)-5-(1-adamantanemethylaminocarbonyl)-4,5,6,7-tetrahydro-5-aza-benzimidazole]				0.1	0.501	5.01
Cn1ccc2cc(C(=O)NCC34CC5CC(CC(C5)C3)C4)c(C(=O)N[C@@H](Cc3ccccc3)C(=O)Nc3cc(C(=O)O)cc(C(=O)O)c3)cc21 [Example 37, 6-(1S-(3,5-dicarboxyphenylaminocarbonyl)-2-phenylethylaminocarbonyl)-5-(1-adamantanemethylaminocarbonyl)-N-methyl-indole]				0.00398	0.00398	2.51
O=C(O)c1cc(NC(=O)[C@H](Cc2ccc(I)cc2)NC(=O)c2cc3[nH]cnc3cc2C(=O)NCC23CC4CC(CC(C4)C2)C3)cc(C(=O)O)c1 [Example 134, 5-(1S-(3,5-dicarboxyphenylaminocarbonyl)-2-(4-iodophenyl)ethylaminocarbonyl)-6-(1-adamantanemethylaminocarbonyl)-benzimidazole]				0.00158	0.0251	0.794
O=C(NCC12CC3CC(CC(C3)C1)C2)c1cc2nc[nH]c2cc1C(=O)N[C@@H](Cc1ccccc1)C(=O)Nc1cc(-c2nn[nH]n2)cc(-c2nn[nH]n2)c1 [Example 80, 5-(1S-(3,5-ditetrazolylphenylaminocarbonyl)-2-phenylethylaminocarbonyl)-6-(1-adamantanemethylaminocarbonyl)-benzimidazole]				0.00631	0.00398	0.794
